# Reference: patent US20230140216A1, “COMBINATION THERAPY FOR TREATING MPS1” (GAIN THERAPEUTICS SA, priority 2020, published 2023)
# What was measured:
# [1] = target: T1, Recombinant human α-L-iduronidase protein (Homo sapiens, UniProt P35475); test: Differential scanning fluorimetry (DSF) thermal stabilization; format: binding
# T1 construct: purchased R&D
# T1 sequence (P35475 28-653): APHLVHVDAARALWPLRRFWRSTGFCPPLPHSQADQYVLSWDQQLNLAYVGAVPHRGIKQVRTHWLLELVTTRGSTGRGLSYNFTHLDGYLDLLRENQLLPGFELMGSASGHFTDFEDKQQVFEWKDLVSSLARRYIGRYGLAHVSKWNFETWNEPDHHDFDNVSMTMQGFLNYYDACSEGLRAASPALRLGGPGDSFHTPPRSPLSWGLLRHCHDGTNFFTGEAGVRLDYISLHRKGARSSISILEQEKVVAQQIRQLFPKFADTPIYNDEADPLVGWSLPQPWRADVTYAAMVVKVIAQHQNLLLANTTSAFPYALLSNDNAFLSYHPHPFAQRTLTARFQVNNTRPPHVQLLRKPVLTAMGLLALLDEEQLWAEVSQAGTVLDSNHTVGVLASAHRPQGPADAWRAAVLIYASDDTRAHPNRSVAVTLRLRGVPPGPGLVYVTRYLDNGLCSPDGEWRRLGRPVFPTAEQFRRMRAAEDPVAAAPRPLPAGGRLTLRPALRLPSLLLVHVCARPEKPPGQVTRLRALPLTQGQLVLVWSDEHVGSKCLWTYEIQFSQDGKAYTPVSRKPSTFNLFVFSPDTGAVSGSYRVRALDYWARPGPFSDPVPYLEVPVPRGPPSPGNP
# Method in brief: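 Purified recombinant human α-L-iduronidase (final 0.75 µM) in 100 mM Hepes, 20 mM MgCl2, pH 7 with SYPRO Orange was heated with compounds (final 1% DMSO). Thermal denaturation was followed by probe fluorescence during a temperature ramp, and stabilization expressed as ΔTm, binned into four categories (A–D).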
# [2] = target: T2, Recombinant human α-L-iduronidase protein (Homo sapiens, UniProt P35475); test: Denaturation prevention assay in neutral pH buffer; format: biochemical; details: 30 µM compound, pH 7, 37° C.
# T2 construct: Ala26-Pro653 with a C-terminal 10_His tag; 10xHis (C); host or cells: HEK293f (stated in b1366 for the UAB protein)
# T2 sequence (P35475 26-653): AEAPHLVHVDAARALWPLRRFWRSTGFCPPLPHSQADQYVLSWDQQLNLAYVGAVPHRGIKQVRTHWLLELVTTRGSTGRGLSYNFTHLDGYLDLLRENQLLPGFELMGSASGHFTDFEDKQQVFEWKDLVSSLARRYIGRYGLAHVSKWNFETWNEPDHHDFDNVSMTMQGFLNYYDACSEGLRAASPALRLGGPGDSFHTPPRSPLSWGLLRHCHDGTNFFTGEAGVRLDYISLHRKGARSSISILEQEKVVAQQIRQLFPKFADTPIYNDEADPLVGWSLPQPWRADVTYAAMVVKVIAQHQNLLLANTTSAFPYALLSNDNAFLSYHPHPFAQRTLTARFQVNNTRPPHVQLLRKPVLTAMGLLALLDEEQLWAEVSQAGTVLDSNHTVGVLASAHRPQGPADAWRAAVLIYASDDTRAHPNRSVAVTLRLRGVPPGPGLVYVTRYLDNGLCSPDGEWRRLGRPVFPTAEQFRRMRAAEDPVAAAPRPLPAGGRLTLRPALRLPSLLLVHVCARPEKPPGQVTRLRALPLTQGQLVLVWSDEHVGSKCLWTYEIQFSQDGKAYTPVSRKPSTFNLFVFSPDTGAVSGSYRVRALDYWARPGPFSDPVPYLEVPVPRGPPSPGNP
# Protocol: The capacity of Compounds of the Disclosure to stabilize α-L-iduronidase in neutral pH buffer was assessed using the denaturation prevention assay.
# Briefly, recombinant human α-L-iduronidase protein (obtained in the Institute of Biotechnology and Biomedicine in the UAB, Bellaterra, Spain) was combined at a final concentration of 1 µM with 5X of SYPRO Orange and 30 µM of the corresponding compound in a final reaction volume of 25 µL in 100 mM Hepes 20 mM MgCl2 pH 7 buffer. Reactions were incubated at 37° C. and SYPRO Orange fluorescence intensity was monitored at the indicated time points using Glomax® Discover Microplate Reader from Promega (Madison, WI, USA).
# The compound referred to as Compound A throughout this specification is the compound of Example 8 described above. […] (T=37° C.).
# [3] = target: T3, Recombinant human α-L-iduronidase protein IDUA (Homo sapiens, UniProt P35475); test: IDUA inhibition assay; format: biochemical; details: 4-MU alpha-L-iduronide substrate, pH 3.5, even at high concentrations
# T3 construct: Ala26-Pro653 with a C-terminal 10_His tag; 10xHis (C); host or cells: HEK293f
# T3 sequence (P35475 26-653): T2 sequence (P35475 26-653)
# Protocol: The ability of Compound of the Disclosure to inhibit IDUA was assessed by the assay described below.
# Recombinant human α-L-iduronidase protein IDUA PR_06_WT_X (obtained in the Institute of Biotechnology and Biomedicine in the UAB, Bellaterra, Spain) was prepared at the desired concentration in PBS:
# Recombinant Human IDUA. HEK293f. Ala26-Pro653 with a C-terminal 10_His tag. Protein buffer: 40 mM sodium acetate, 400 mM NaCl and 20% glycerol, pH=5. Produced by PPP IBB UAB.
# The activity assay (3 replicates of each sample) included the following procedures:
# In dark 96-well plates compatible with fluorometer: • 1) 25 µL of Recombinant protein or PBS (in blank samples); • 2) 1 µL CO (50X concentrate, made in an intermediate plate) or DMSO for the untreated samples; • 3) 25 µL of 200 µM substrate solution (from a stock solution of 20 mM of substrate in DMSO), 4-Methylumbelliferyl alpha-L-iduronide (Glycosynth, 44076) in 0,4 M sodium formate, pH 3,5, and 0,2% triton; • 4) Mix (shaker); • 5) 37° C. 60 min; • 6) Stop the reaction by adding 200 µL of 0,5 M Glycine / 0,3 M NaOH, pH=10; and • 7) Read Fluorescence at Ex/Em: 340/460 nm.
smiles,measurement,setting,value
CCN(CC(=O)Nc1c(Cl)cccc1Cl)Cc1nc2ccsc2c(=O)[nH]1 [Compound A],stabilization of recombinant human IDUA (thermal shift),"[1]; DSF dose response, maximum shift",up to 4 °C
same,Kd,[1]; thermal shift dose response curve,22 µM
same,prevention of pH-induced IDUA denaturation,[2],slows down pH-induced denaturation
same,inhibition of IDUA enzymatic activity,[3],does not inhibit human IDUA
